Key:
SMARCA2 = target: T1, SMARCA2 (Homo sapiens, UniProt P51531); assay: SMARCA2 protein degradation in NCIH520 cells by In Cell Western (ICW); assay type: cell-based; settings: highest concentration 1 μM; for DC50: H520 cells, overnight incubation (maximum 18 hours), read-out: DC50 (SM2_H520): SMARCA2 degradation potency; for Dmax: NCI-H520, overnight incubation (maximum 18 hours), read-out: Dmax % (SM2_H520): maximum SMARCA2 degradation within the concentrations tested
T1 construct: endogenous in cells; host or cells: NCI-H520 (given as NCIH520 / NCIH1520 / H520)
T1 sequence (P51531 whole entry): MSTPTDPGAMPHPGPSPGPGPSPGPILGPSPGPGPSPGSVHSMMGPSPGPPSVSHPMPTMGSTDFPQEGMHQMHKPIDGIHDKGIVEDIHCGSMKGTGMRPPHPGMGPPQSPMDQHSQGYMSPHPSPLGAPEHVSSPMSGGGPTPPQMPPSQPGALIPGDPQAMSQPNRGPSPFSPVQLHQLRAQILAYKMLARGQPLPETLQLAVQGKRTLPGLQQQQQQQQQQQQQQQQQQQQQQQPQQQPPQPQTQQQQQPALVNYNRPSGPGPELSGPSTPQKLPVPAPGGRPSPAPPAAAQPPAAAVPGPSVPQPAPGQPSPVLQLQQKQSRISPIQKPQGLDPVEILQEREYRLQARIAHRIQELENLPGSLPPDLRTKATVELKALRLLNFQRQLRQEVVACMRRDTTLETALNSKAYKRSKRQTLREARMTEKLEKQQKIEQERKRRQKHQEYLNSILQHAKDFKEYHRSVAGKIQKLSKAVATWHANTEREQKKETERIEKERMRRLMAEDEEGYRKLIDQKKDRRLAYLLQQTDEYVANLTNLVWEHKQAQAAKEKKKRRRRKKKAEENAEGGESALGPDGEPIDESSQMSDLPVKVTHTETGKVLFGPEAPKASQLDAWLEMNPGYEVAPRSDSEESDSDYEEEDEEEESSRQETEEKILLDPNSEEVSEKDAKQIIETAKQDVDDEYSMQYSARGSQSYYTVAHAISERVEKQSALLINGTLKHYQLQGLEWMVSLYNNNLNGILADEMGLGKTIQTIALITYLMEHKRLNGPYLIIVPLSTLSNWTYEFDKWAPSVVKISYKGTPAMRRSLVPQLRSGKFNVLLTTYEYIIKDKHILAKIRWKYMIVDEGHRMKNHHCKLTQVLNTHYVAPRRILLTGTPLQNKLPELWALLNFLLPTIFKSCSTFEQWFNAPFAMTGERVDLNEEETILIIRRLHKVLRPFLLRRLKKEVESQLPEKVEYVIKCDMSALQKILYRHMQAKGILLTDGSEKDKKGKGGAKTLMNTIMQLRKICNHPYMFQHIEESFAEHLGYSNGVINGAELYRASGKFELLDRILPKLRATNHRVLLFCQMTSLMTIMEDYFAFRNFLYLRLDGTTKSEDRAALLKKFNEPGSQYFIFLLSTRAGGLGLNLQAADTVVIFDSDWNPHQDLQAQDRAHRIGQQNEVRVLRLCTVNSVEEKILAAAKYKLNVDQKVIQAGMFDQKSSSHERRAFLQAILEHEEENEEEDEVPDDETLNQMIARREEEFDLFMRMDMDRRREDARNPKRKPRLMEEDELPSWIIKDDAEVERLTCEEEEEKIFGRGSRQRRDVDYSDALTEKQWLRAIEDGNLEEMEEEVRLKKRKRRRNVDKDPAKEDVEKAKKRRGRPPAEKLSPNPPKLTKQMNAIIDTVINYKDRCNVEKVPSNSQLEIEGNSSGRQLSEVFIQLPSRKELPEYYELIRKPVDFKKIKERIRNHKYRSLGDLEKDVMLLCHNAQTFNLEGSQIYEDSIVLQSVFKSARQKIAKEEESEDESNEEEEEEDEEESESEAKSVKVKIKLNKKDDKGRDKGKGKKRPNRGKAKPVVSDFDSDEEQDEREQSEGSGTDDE
Description: (§1) Compounds were dissolved in DMSO to make 10 mM stock and 3-fold series dilutions were further conducted keeping the highest concentration 10 μM. NCIH11693 and NCIH1520 cells were maintained in PRMI 1640 medium (Corning Cellgro, Catalog #: 10-040-CV) supplemented with 10% v/v FBS (GE Healthcare, Catalog #: SH30910.03) by splitting 1:3 twice a week.
(§2) SMACRA2 and SMARCA4 Protein Degradation DC50 Values in NCIH1693 and NCIH520 Cells by in Cell Western (ICW) Analysis.
(§3) Cells were trypsinized and 30 thousand cells/well were seeded into 384-well plates and were allowed to grow for 1-2 hours at 37° C. Eight-point, 3-fold serial dilutions of compounds from 0.5 mM stocks were added to the cells (using digital Dispenser D300-Tecan, keeping highest concentration 1 μM and normalizing with DMSO at the highest dispensed volume). Plates were incubated at 37° C. for overnight (maximum 18 hours). Cells incubated with DMSO was used as a vehicle control.
(§4) To perform In Cell Western, medium was removed from all the wells leaving cells attached to the surface. After removing the medium, cells were fixed within the plates with 40 μL of 4% formaldehyde by incubating at room temperature for 30 minutes, and then permeabilized with wash buffer (1×PBS with 0.1% Triton X-100) by washing the plate 5 times with 50 μL/well. Before labeling with primary antibodies, cells were blocked with 30 μL/well of blocking buffer (Licor Odyssey blocking buffer PBS #927-40000) for 30 minutes at room temperature. To measure SMARCA2 or SMARCA4 proteins, cells were labeled with 20 μL/well of anti SMARCA2 or SMACRA4 antibodies (Cell Signaling BRM #11966S 1:800, Cell Signaling BRG #49360S 1:800) diluted in Li-Cor Odyssey blocking buffer-PBS #927-40000, followed by overnight incubation at 4° C.
(§5) The next day, plates were washed 5×5 minutes with 50 μL/well of washing buffer to remove all the excess primary antibody and then 20 μL from a mixture of secondary antibody and fluorescent DNA specific dye (Goat anti rabbit 1:500 IRDye-800CW #92632211, and DRAQ5™ 1:2000-#ab108410) was added to each well. Plates were incubated for 1 hour at room temperature with gentle rocking. Cells were washed 5 times with 50 μL/well wash buffer, followed by one last wash with DI water, followed by 10 mins drying at 37° C. oven before scanning. Plates were scanned using Li-Cor Odyssey CLx imaging system to acquire integrated intensities at 700 nm and 800 nm. SMARCA signals were normalized to total cell count and then these normalized values were used to calculate the percent degradation relative to DMSO control and maximum inhibition. DC50s were calculated by using the GraphPad Prism4 program based on sigmoidal dose response equation ([Inhibitor] vs. normalized response-Variable slope).
(§6) In Table 36, the DC50/Dmax% (SM2_H520) refers to SMARCA2 degradation potency/maximum SMARCA2 degradation within the concentrations in H520 cells and DC50/Dmax% (SM4_H520) refers to SMARCA4 degradation potency/maximum SMARCA4 degradation within the concentrations tested in H520 cells.

SMARCA4 = target: T2, SMARCA4 (Homo sapiens, UniProt P51532); assay: SMARCA4 protein degradation in NCIH520 cells by In Cell Western (ICW); assay type: cell-based; settings: highest concentration 1 μM; for DC50: H520 cells, overnight incubation (maximum 18 hours), read-out: DC50 (SM4_H520): SMARCA4 degradation potency; for Dmax: NCI-H520, overnight incubation (maximum 18 hours), read-out: Dmax % (SM4_H520): maximum SMARCA4 degradation within the concentrations tested
T2 construct: endogenous in cells; host or cells: NCI-H520 (given as NCIH520 / NCIH1520 / H520)
T2 sequence (P51532 whole entry): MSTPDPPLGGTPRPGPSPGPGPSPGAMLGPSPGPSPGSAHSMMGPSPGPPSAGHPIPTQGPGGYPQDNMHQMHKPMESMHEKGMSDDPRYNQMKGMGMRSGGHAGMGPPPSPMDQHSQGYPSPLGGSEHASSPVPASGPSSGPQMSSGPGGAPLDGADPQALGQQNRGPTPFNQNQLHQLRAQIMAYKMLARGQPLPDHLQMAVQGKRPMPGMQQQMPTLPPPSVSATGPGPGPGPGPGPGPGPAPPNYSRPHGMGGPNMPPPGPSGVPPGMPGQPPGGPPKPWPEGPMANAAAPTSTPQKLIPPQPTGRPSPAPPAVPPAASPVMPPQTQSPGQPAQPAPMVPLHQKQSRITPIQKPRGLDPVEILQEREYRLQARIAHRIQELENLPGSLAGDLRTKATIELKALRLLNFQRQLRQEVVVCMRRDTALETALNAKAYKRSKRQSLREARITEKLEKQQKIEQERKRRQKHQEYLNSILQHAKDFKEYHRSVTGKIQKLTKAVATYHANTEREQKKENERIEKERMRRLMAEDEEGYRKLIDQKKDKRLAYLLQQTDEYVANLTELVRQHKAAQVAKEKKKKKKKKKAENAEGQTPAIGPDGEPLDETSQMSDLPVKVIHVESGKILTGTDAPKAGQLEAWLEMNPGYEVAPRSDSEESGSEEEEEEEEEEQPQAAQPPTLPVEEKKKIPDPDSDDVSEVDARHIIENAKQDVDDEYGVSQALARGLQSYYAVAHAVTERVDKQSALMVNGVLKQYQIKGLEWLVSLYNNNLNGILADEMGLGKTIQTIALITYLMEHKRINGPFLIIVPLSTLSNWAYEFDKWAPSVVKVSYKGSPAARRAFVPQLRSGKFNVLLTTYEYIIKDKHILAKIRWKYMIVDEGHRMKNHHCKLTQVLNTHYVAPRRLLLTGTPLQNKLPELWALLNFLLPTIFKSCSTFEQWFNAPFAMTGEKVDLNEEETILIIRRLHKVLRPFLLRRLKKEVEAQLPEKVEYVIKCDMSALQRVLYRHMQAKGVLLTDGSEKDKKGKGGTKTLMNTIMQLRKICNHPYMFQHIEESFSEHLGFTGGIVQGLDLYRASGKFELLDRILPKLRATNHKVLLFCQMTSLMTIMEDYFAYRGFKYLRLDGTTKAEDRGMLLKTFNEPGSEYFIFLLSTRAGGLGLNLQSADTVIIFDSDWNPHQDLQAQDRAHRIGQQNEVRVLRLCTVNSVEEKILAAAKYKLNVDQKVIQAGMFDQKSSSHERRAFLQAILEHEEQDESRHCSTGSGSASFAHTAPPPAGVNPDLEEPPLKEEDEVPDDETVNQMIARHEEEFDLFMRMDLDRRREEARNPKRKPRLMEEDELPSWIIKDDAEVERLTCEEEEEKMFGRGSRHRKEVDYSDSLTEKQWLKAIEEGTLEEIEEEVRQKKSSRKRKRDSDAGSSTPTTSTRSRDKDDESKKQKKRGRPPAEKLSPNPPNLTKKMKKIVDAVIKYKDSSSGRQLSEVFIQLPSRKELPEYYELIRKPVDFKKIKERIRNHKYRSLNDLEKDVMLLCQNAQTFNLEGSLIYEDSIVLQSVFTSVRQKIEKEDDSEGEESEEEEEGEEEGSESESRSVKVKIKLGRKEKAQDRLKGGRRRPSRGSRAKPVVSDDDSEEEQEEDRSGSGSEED
Description: as §1, §2, §3, §4, §5, §6

[1] = system: SMARCA4 mutated cancer cells; settings: SMARCA2/4 bromodomain inhibitor; Vangamudi et al. Cancer Res 2015; cited from earlier work

SMILES	DC50 (SMARCA2) [nM]	Dmax (SMARCA2) [%]	DC50 (SMARCA4) [nM]	Dmax (SMARCA4) [%]	effects on cell proliferation inhibition [1]
O=C1CCC(N2C(=O)c3ccc(N4CCN(CCCN5CCC(N6CCN7c8cc(-c9ccccc9O)nnc8NC[C@H]7C6)CC5)CC4)cc3C2=O)C(=O)N1 (stereo partly drawn) [Example 11, 2-(2,6-Dioxopiperidin-3-yl)-5-(4-(3-(4-((S)-2-(2-hydroxyphenyl)-5,6,6a,7,9,10-hexahydro-8H-pyrazino[1′,2′:4,5]1pyrazino[2,3-c]pyridazin-8-yl)piperidin-1-yl)propyl)piperazin-1-yl) isoindoline-1,3-dione]	< 100	> 75	< 100	> 75	–
O=C1CCC(N2Cc3cc(CN4CCC(c5cnc(N6CCN7c8cc(-c9ccccc9O)nnc8NC[C@H]7C6)nc5)CC4)ccc3C2=O)C(=O)N1 (stereo partly drawn) [Example 10, 3-(5-((4-(2-((S)-2-(2-hydroxyphenyl)-5,6,6a,7,9,10-hexahydro-8H-pyrazino[1′,2′:4,5]pyrazino[2,3-c]pyridazin-8-yl)pyrimidin-5-yl)piperidin-1-yl)methyl)-1-oxoisoindolin-2-yl)piperidine-2,6-dione]	< 100	> 75	< 100	50 to 75	–
O=C(/C=C/N1C[C@H]2C[C@@H]1CN2c1ccccn1)c1ccccc1O [PFI-3]	–	–	–	–	none to minor effects

Now from value to compound, other results behind:

DC50 (SMARCA2) [nM]	Dmax (SMARCA2) [%]	DC50 (SMARCA4) [nM]	Dmax (SMARCA4) [%]	SMILES	effects on cell proliferation inhibition [1]
< 100	> 75	< 100	> 75	O=C1CCC(n2c3ccc(CCCN4CCC(c5cnc(N6CCN7c8cc(-c9ccccc9O)nnc8NC[C@@H]7C6)nc5)CC4)cc3c3cccnc32)C(=O)N1 (stereo partly drawn) [Example 18, 3-(6-(3-(4-(2-((R)-2-(2-hydroxyphenyl)-5,6,6a,7,9,10-hexahydro-8H-pyrazino [1′,2′:4,5]pyrazino[2,3-c]pyridazin-8-yl)pyrimidin-5-yl)piperidin-1-yl)propyl)-9H-pyrido [2,3-b]indol-9-yl)piperidine-2,6-dione]	–
< 100	> 75	< 100	> 75	O=C1CCC(N2Cc3cc(CCCN4CCC(CCc5cnc(N6CCN7c8cc(-c9ccccc9O)nnc8NC[C@@H]7C6)nc5)CC4)ccc3C2=O)C(=O)N1 (stereo partly drawn) [Example 3, 3-(5-(3-(4-(2-(2-((R)-2-(2-hydroxyphenyl)-5,6,6a,7,9,10-hexahydro-8H-pyrazino[1′,2′:4,5]pyrazino[2,3-c]pyridazin-8-yl)pyrimidin-5-yl)ethyl)piperidin-1-yl)propyl)-1-oxoisoindolin-2-yl)piperidine-2,6-dione]	–
< 100	> 75	< 100	50 to 75	O=C1CCC(N2C(=O)c3ccc(N4CCN(CCN5CCC(N6CCN7c8cc(-c9ccccc9O)nnc8NC[C@H]7C6)C5)CC4)cc3C2=O)C(=O)N1 (stereo partly drawn) [Example 12, 2-(2,6-Dioxopiperidin-3-yl)-5-(4-(2-(3-((S)-2-(2-hydroxyphenyl)-5,6,6a,7,9,10-hexahydro-8H-pyrazino[1′,2′:4,5]pyrazino[2,3-c]pyridazin-8-yl)pyrrolidin-1-yl)ethyl)piperazin-1-yl) isoindoline-1,3-dione]	–
< 100	> 75	< 100	> 75	O=C1CCC(n2c3ccc(CCCN4CCC(N5CCC(N6CCN7c8cc(-c9ccccc9O)nnc8NC[C@H]7C6)CC5)CC4)cc3c3cccnc32)C(=O)N1 (stereo partly drawn) [Example 20, 3-(6-(3-(4-((S)-2-(2-hydroxyphenyl)-5,6,6a,7,9,10-hexahydro-8H-pyrazino [1′,2′:4,5]pyrazino[2,3-c]pyridazin-8-yl)-[1,4′-bipiperidin]-1′-yl)propyl)-9H-pyrido[2,3-b]indol-9-yl)piperidine-2,6-dione]	–
